Format in all cases: cell-based
Series [1] concerns P. falciparum DD2 (chloroquine-resistant). The experiment in a line: Anti-malarial activity, P. falciparum DD2 culture, 72 hour, DNA content by flow cytometry. The note with it: synchronized ring-stage parasites. As for the experimental part:
Numerous compounds were screened in cultures of the malaria parasite P. falciparum 3D7 (chloroquine-sensitive) and DD2 (chloroquine-resistant). The compounds were also screened for toxixcity against 3T3 cells, HepG2 cells, and in a hemolysis assay. In brief, P. falciparum parasites were cultured in RPMI 1640 (Invitrogen) supplemented with Albumax II (Invitrogen). For synchronization, schizont stage parasites were magnet purified using a SuperMACS™ II Cell Separation Unit (Miltenyi Biotech). For IC50 determinations, synchronized ring-stage parasites were plated at 0.5% parasitemia and 8% hematocrit in 96-well plates at a total volume of 50 μL. Serial dilutions of 2× concentration of the respective compound, ranging from 2.5 μM to 20 nM, were added to the wells to bring the total volume up to 100 μL and 4% hematocrit. Compounds were assayed for a 72 hour period, after which the cultures were fixed with a solution of 4% paraformaldehyde and 0.08% glutaraldhyde in PBS. The cells were then permeabilized with 0.25% Triton X-100, and SYTOX Green Nucleic Acid Stain (Invitrogen) in PBS was added to a final concentration of 5 μM. DNA content, as an indicator of parasitemia, was analyzed on an Accuri C6 Flow Cytometer with C-Sampler. IC50 curves were generated using GraphPad Prism (GraphPad Software).

Series [2] concerns P. falciparum 3D7 (chloroquine-sensitive). In words: Anti-malarial activity, P. falciparum 3D7 culture, 72 hour, DNA content by flow cytometry. The note with it: synchronized ring-stage parasites. The essentials:
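Magnet-synchronized ring-stage parasites in RPMI 1640/Albumax II were plated at 0.5% parasitemia, 4% final hematocrit, with compound added as 2× dilutions (2.5 μM to 20 nM) for 72 h. Fixed, Triton-permeabilized cells were stained with SYTOX Green (5 μM final), and DNA content was measured by flow cytometry to derive IC50.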

The next series is described as follows: in vitro.
A further series relates to HepG2 cells. The experiment in a line: Cytotoxicity against HepG2 cells.
For another series, the system named is 3T3 cells. The experiment in a line: Cytotoxicity against 3T3 cells.
Where [3] appears, read: Plasmodium falciparum, 3D7, 72 h.

pEC50, pIC50: −log10 of the molar value. Converted amounts (≈) assume the structure as drawn.

`NCCOc1c(N)cc(C(F)(F)F)cc1NC(=O)c1cccc(C(=O)Nc2cc(C(F)(F)F)cc(N)c2OCCN)c1` [Compound 112]: the values for the pIC50 in series [1] and in series [2] were 6.00 and 6.19, respectively.
The corresponding values for `CC(C)(C)c1cc(N)c(SCCCC(=N)N)c(NC(=O)c2cccc(C(=O)Nc3cc(C(C)(C)C)cc(N)c3SCCCC(=N)N)c2)c1` [Compound 113] are 6.21 and 6.18.
The corresponding values for `CC(C)(C)c1cc(NC(=O)c2cccc(C(=O)Nc3cc(C(C)(C)C)cc(NC(=O)C(N)Cc4ccccc4)c3SCCN)c2)c(SCCN)c(NC(=O)C(N)Cc2ccccc2)c1` (centres unmarked) [Compound 109] are 6.22 and 6.36.
Take `COC(=O)CCSc1c(NC(=O)CCCCNC(=N)N)cc(C(F)(F)F)cc1NC(=O)c1cc(C(=O)Nc2cc(C(F)(F)F)cc(NC(=O)CCCCNC(=N)N)c2SCCC(=O)OC)ncn1` [Compound 171]: the pIC50 in series [1] (Plasmodium falciparum) was 6.28; in series [2] (setting [3]), 6.05.
On to `CC(=O)Nc1cc(C(C)(C)C)cc(NC(=O)c2cccc(C(=O)Nc3cc(C(C)(C)C)cc(NC(C)=O)c3SCCN)c2)c1SCCN` [Compound 108], for which the pIC50 in series [1] is 6.38; in series [2] it was 6.51.
On to `FC(F)(F)c1cc(NC2CCNCC2)ccc1Oc1ccc(Oc2ccc(NC3CCCNC3)cc2C(F)(F)F)cc1` (centres unmarked) [Compound 165], for which the pIC50 in series [1] (Plasmodium falciparum) is 5.93; in series [2] (setting [3]) it was 6.04. The molecule further returned an EC50 in “in vitro” of 16 µg/mL (≈ 26.9 µM).
With `CC(=O)NCCSc1c(NC(=O)CCCCNC(=N)N)cc(Br)cc1NC(=O)c1cc(C(=O)Nc2cc(Br)cc(NC(=O)CCCCNC(=N)N)c2SCCNC(C)=O)ncn1` [Compound 169], the pIC50 in series [1] (Plasmodium falciparum) is 6.82; in series [2] (setting [3]) it was 6.50. This molecule also displayed an EC50 in the series “in vitro” of 210 µg/mL (≈ 205 µM).
Consider `N=C(N)N1CCC(Oc2ccc(NC(=O)Nc3ccc(OC4CCN(C(=N)N)C4)c(C(F)(F)F)c3)cc2C(F)(F)F)C1` (centres unmarked) [Compound 271], for which the pIC50 in series [2] was 7.54. Also, the pEC50 is 3.46 with HepG2 cells and 3.76 in the series on 3T3 cells.
The corresponding values for `CCn1c2ccc(N3CCNCC3)cc2c2cc(N3CCNCC3)ccc21` [Compound 293] are below 7.00, below 3.00 and 3.33.
Take `CN(CCCCC(=O)Nc1cc(C(C)(C)C)cc(NC(=O)c2cccc(C(=O)Nc3cc(C(C)(C)C)cc(NC(=O)CCCCN(C)c4ccccn4)c3SCCN)c2)c1SCCN)c1ccccn1` [Compound 118]: the values for the pIC50 in series [1] and in series [2] were 5.94 and 6.13, respectively.
For the molecule `N=C(N)NCCSc1ccc(NC(=O)Nc2ccc(OC3CCN(C(=N)N)C3)c(C(F)(F)F)c2)cc1C(F)(F)F` (centres unmarked) [Compound 272], the pIC50 in series [2] is 7.42. Besides, the pEC50 with HepG2 cells was 3.67; in the series with 3T3 cells, 4.19.
The corresponding values for `N=C(N)NCCCc1ccc(-c2ccc(-c3ccc(CCCNC(=N)N)cc3)s2)cc1` [Compound 266] are 7.23, 3.71 and 4.42.
The corresponding values for `Nc1cc(NC(=O)c2cc(C(=O)Nc3ccc(N4CCNCC4)c(F)c3)ncn2)ccc1N1CCNCC1` [Compound 218] are 7.25, 3.63 and 4.34.
The corresponding values for `CCN(CC)CCN(CCN)c1c(F)cc(C(F)(F)F)cc1NC(=O)Nc1cc(C(F)(F)F)cc(F)c1N(CCN)CCN(CC)CC` [Compound 127] are 6.13, 3.38 and 3.88.
As for `NCCc1cccc(-c2cnc(-c3cccc(CCN)c3)s2)c1` [Compound 242], the pIC50 in series [2] was below 5.70. In addition, the pEC50 in the series on HepG2 cells was 3.23; in the series with 3T3 cells, 4.15.
The corresponding values for `N=C(N)NCCCn1c2ccc(C3=CCN(C(=N)N)CC3)cc2c2cc(C3=CCN(C(=N)N)CC3)ccc21` [Compound 289] are below 7.00, 3.37 and 3.61.
The corresponding values for `Cn1c(-c2cccc(CCNC(=N)N)c2)cnc1-c1cccc(CCNC(=N)N)c1` [Compound 246] are 8.30, below 3.00 and below 3.00.
The corresponding values for `CCn1c2ccc(C3CCN(C(=N)N)CC3)cc2c2cc(C3CCN(C(=N)N)CC3)ccc21` [Compound 285] are 7.07, 3.09 and 3.23.
The molecule `N=C(N)NCCCOc1cccc(-c2cncc(-c3cccc(OCCCNC(=N)N)c3)c2)c1` [Compound 133] showed a pIC50 in series [2] of 6.93. In addition, the pEC50 in the series on HepG2 cells is 3.26; in the series with 3T3 cells it was 3.53.
The corresponding values for `N=C(N)NCCc1cccc(NC(=O)c2cc(C(=O)Nc3cccc(CCNC(=N)N)c3)nc(SCCN)n2)c1` [Compound 182] are 6.25, 3.46 and 3.48.
Take `CC(C)(C)c1cc(N)c(SCCN)c(NC(=O)c2cccc(C(=O)Nc3cc(C(C)(C)C)cc(N)c3SCCN)c2)c1` [Compound 110]: the pIC50 in series [1] was 6.13; in series [2], 6.25.
`NCCc1cccc(-c2ccc(-c3cccc(CCN)c3)o2)c1` [Compound 237] gave a pIC50 in series [2] below 5.70. The pEC50 with HepG2 cells was 3.65; in the series with 3T3 cells, 5.70.
Turning to `NCCc1cccc(-c2cn(-c3cccc(CCN)c3)nn2)c1` [Compound 250], in series [2], the pIC50 was 6.25. The pEC50 in the series on HepG2 cells and in the series with 3T3 cells was below 3.00 throughout.
As for `NCCSc1c(NC(=O)c2cc(C(=O)Nc3cc(C(F)(F)F)cc(NC(=O)c4cccs4)c3SCCN)ncn2)cc(C(F)(F)F)cc1NC(=O)c1cccs1` [Compound 311], the pIC50 in series [2] was below 7.00. Besides, the pEC50 with HepG2 cells and in the series on 3T3 cells was 3.03 throughout.
Molecule `N=C(N)NCCc1cccc(-c2ccc(-c3cccc(CCNC(=N)N)c3)s2)c1` [Compound 238] gave a negative-log IC50 (pIC50) in series [2] of 6.96. For the same molecule, the results for the pEC50 in the series with HepG2 cells and in the series on 3T3 cells were 3.51 and 3.97, respectively.
With `N=C(N)NCCSc1ccc(NC(=O)Nc2ccc(SCCN)c(C(F)(F)F)c2)cc1C(F)(F)F` [Compound 130], the pIC50 in series [1] was 6.01.
For `CCn1c2ccc(C3=CCNCC3)cc2c2cc(C3=CCNCC3)ccc21` [Compound 282], the pIC50 in series [2] was below 7.00. For the same molecule, the pEC50 is 3.90 in the series with HepG2 cells and 4.24 in the series on 3T3 cells.
As to `N=C(N)NCCCCC(=O)Nc1cc(C(F)(F)F)cc(NC(=O)c2cc(C(=O)Nc3cc(C(F)(F)F)cc(NC(=O)CCCCNC(=N)N)c3SCCN)[nH]n2)c1SCCN` [Compound 119], the pIC50 is 6.16 in series [1] and 6.06 in series [2].
Consider `N=C(N)NCCCOc1cccc(-c2cncc(-c3ccc(-c4cncc(-c5cccc(OCCCNC(=N)N)c5)c4)s3)c2)c1` [Compound 227], for which, in series [2], the pIC50 is 6.19. Further, the pEC50 with HepG2 cells is 3.93; with 3T3 cells, 4.27.
In the case of `CCn1c2ccc(C3CCNCC3)cc2c2cc(C3CCNCC3)ccc21` [Compound 283], the pIC50 in series [2] was below 7.00. In addition, the pEC50 with HepG2 cells is 3.55; in the series on 3T3 cells, 3.82.
`N=C(N)NCCCCCC(=O)Nc1cc(C(F)(F)F)cc(NC(=O)c2cc(C(=O)Nc3cc(C(F)(F)F)cc(NC(=O)CCCCCNC(=N)N)c3SCCN)ncn2)c1SCCN` [Compound 106]: the pIC50 in series [2] was 6.54. In addition, the pEC50 in the series with HepG2 cells was 4.05; in the series with 3T3 cells it was 4.10.
The corresponding values for `N=C(N)NCCc1cccc(NC(=O)Nc2cccc(CCNC(=N)N)c2)c1` [Compound 269] are 6.49, below 3.00 and below 3.00.
The corresponding values for `O=C(Nc1ccc(SCCNC2=NCCN2)c(C(F)(F)F)c1)Nc1ccc(SCCNC2=NCCN2)c(C(F)(F)F)c1` [Compound 268] are 7.06, 3.35 and 4.13.
The corresponding values for `N=C(N)NCCc1cccc(-c2cn(-c3cccc(CCNC(=N)N)c3)nn2)c1` [Compound 256] are 7.23, below 3.00 and below 3.00.
As to `NCCc1cccc(-c2ccc(-c3cccc(CCN)c3)cc2)c1` [Compound 235], in series [2], the pIC50 is below 5.70. Also, the pEC50 was 3.81 in the series on HepG2 cells and 4.85 in the series on 3T3 cells.
The corresponding values for `Cn1c(-c2ccc(CCCN)cc2)cnc1-c1ccc(CCCN)cc1` [Compound 265] are below 7.00, below 3.00 and below 3.00.
As for `N=C(N)NCCCc1cccc(-c2cc(-c3cccc(CCCNC(=N)N)c3)ncn2)c1` [Compound 135], the pIC50 in series [2] is 6.88. The pEC50 is 3.16 with HepG2 cells and 3.21 in the series on 3T3 cells.
The corresponding values for `CCN(CC)CCN(CCN)c1c(Cl)cc(C(F)(F)F)cc1NC(=O)Nc1cc(C(F)(F)F)cc(Cl)c1N(CCN)CCN(CC)CC` [Compound 124] are 6.49, 4.62 and 4.70.
The corresponding values for `N=C(N)NCCc1cccc(-c2ccc(-c3cccc(CCNC(=N)N)c3)cc2)c1` [Compound 239] are 6.99, 3.54 and 3.83.

(Values after US20150094294A1, “COMPOUNDS AND METHODS FOR TREATING MALARIA” (Cellceutix Corporation, priority 2012, published 2015).)
